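Step 1: Grow cells in 96-well plates. Step 2: Expose to compound for 48 hours at 5 concentrations. Step 3: Interpolate endpoints linearly; if unreached, use highest concentration. Definition used: TGI = concentration required for complete inhibition of growth.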
Key:
Experiment in all cases: DTP human tumour cell line panel, 48 h
MALME-3M melanoma = tested on: MALME-3M melanoma
OVCAR-8 ovarian = tested on: OVCAR-8 ovarian
ACHN renal = tested on: ACHN renal
IGROV1 ovarian = tested on: IGROV1 ovarian
SK-MEL-2 melanoma = tested on: SK-MEL-2 melanoma
NCI-H522 lung = tested on: NCI-H522 lung
HOP-18 NSCLC = tested on: HOP-18 NSCLC
RPMI-8226 leukemia = tested on: RPMI-8226 leukemia
HL-60(TB) leukemia = tested on: HL-60(TB) leukemia
M14 melanoma = tested on: M14 melanoma
DMS 114 small cell lung = tested on: DMS 114 small cell lung
SF-295 CNS = tested on: SF-295 CNS
SW-620 colon = tested on: SW-620 colon
HT29 colon = tested on: HT29 colon
XF 498 CNS = tested on: XF 498 CNS
SNB-19 CNS = tested on: SNB-19 CNS
SK-MEL-28 melanoma = tested on: SK-MEL-28 melanoma
NCI-H226 lung = tested on: NCI-H226 lung
KM12 colon = tested on: KM12 colon
OVCAR-3 ovarian = tested on: OVCAR-3 ovarian
HCT-15 colon = tested on: HCT-15 colon
NCI-H23 lung = tested on: NCI-H23 lung
DLD-1 colon = tested on: DLD-1 colon
K-562 leukemia = tested on: K-562 leukemia
DMS 273 small cell lung = tested on: DMS 273 small cell lung
M19-MEL melanoma = tested on: M19-MEL melanoma
SF-539 CNS = tested on: SF-539 CNS
U251 CNS = tested on: U251 CNS
SR leukemia = tested on: SR leukemia
COLO 205 colon = tested on: COLO 205 colon
CAKI-1 renal = tested on: CAKI-1 renal
SF-268 CNS = tested on: SF-268 CNS
A549 NSCLC = tested on: A549 NSCLC
786-0 renal = tested on: 786-0 renal
OVCAR-4 ovarian = tested on: OVCAR-4 ovarian
SK-MEL-5 melanoma = tested on: SK-MEL-5 melanoma
UO-31 renal = tested on: UO-31 renal
SNB-75 CNS = tested on: SNB-75 CNS
NCI-H460 lung = tested on: NCI-H460 lung
UACC-62 melanoma = tested on: UACC-62 melanoma
HOP-62 NSCLC = tested on: HOP-62 NSCLC
KM20L2 colon = tested on: KM20L2 colon
RXF-631 renal = tested on: RXF-631 renal
HOP-92 NSCLC = tested on: HOP-92 NSCLC
LXFL 529 NSCLC = tested on: LXFL 529 NSCLC
RXF 393 renal = tested on: RXF 393 renal
CCRF-CEM leukemia = tested on: CCRF-CEM leukemia
SK-OV-3 ovarian = tested on: SK-OV-3 ovarian
MOLT-4 leukemia = tested on: MOLT-4 leukemia
SN12C renal = tested on: SN12C renal
UACC-257 melanoma = tested on: UACC-257 melanoma
HCT-116 colon = tested on: HCT-116 colon
TK-10 renal = tested on: TK-10 renal
EKVX NSCLC = tested on: EKVX NSCLC
HCC-2998 colon = tested on: HCC-2998 colon
OVCAR-5 ovarian = tested on: OVCAR-5 ovarian
SNB-78 CNS = tested on: SNB-78 CNS

In the case of `CC(C)C1=CC(=O)C(C)(C2=NC(C)(C)CO2)c2ccccc21` (stereo not given), the TGI (MALME-3M melanoma) is reported as over 100 µM, the TGI (OVCAR-8 ovarian) is reported as over 100 µM and the TGI (ACHN renal) is reported as over 100 µM. The TGI (IGROV1 ovarian) was over 100 µM, the TGI (SK-MEL-2 melanoma) was over 100 µM and the TGI (NCI-H522 lung) was over 100 µM. It also gave a TGI (HOP-18 NSCLC) of over 100 µM, a TGI (RPMI-8226 leukemia) of over 100 µM and a TGI (HL-60(TB) leukemia) of over 100 µM. For the same compound, the TGI (M14 melanoma) was over 100 µM, the TGI (DMS 114 small cell lung) was over 100 µM and the TGI (SF-295 CNS) was over 100 µM. It also gave a TGI (SW-620 colon) of over 100 µM, a TGI (HT29 colon) of over 100 µM and a TGI (XF 498 CNS) of over 100 µM. The TGI (SNB-19 CNS) was over 100 µM, the TGI (SK-MEL-28 melanoma) was over 100 µM and the TGI (NCI-H226 lung) was over 100 µM. For the same compound, the TGI (KM12 colon) was over 100 µM, the TGI (OVCAR-3 ovarian) was over 100 µM and the TGI (HCT-15 colon) was over 100 µM. For the same compound, the TGI (NCI-H23 lung) was over 100 µM, the TGI (DLD-1 colon) was over 100 µM and the TGI (K-562 leukemia) was over 100 µM. It also gave a TGI (DMS 273 small cell lung) of over 100 µM, a TGI (M19-MEL melanoma) of over 100 µM and a TGI (SF-539 CNS) of over 100 µM. It also gave a TGI (U251 CNS) of over 100 µM, a TGI (SR leukemia) of over 100 µM and a TGI (COLO 205 colon) of over 100 µM. The TGI (CAKI-1 renal) was over 100 µM, the TGI (SF-268 CNS) was over 100 µM and the TGI (A549 NSCLC) was over 100 µM. The TGI (786-0 renal) was over 100 µM, the TGI (OVCAR-4 ovarian) was over 100 µM and the TGI (SK-MEL-5 melanoma) was over 100 µM. The TGI (UO-31 renal) was over 100 µM, the TGI (SNB-75 CNS) was over 100 µM and the TGI (NCI-H460 lung) was over 100 µM. It also gave a TGI (UACC-62 melanoma) of over 100 µM, a TGI (HOP-62 NSCLC) of over 100 µM and a TGI (KM20L2 colon) of over 100 µM. For the same compound, the TGI (RXF-631 renal) was over 100 µM, the TGI (HOP-92 NSCLC) was over 100 µM and the TGI (LXFL 529 NSCLC) was over 100 µM. For the same compound, the TGI (RXF 393 renal) was over 100 µM, the TGI (CCRF-CEM leukemia) was over 100 µM and the TGI (SK-OV-3 ovarian) was over 100 µM. The TGI (MOLT-4 leukemia) was over 100 µM, the TGI (SN12C renal) was over 100 µM and the TGI (UACC-257 melanoma) was over 100 µM. It also gave a TGI (HCT-116 colon) of over 100 µM, a TGI (TK-10 renal) of over 100 µM and a TGI (EKVX NSCLC) of over 100 µM.

In the case of `CO/C=C/c1cc2c(cc1C(OC)OC)OCO2`, the TGI (MALME-3M melanoma) is reported as over 100 µM, the TGI (OVCAR-8 ovarian) is reported as over 100 µM and the TGI (ACHN renal) is reported as over 100 µM. It also gave a TGI (IGROV1 ovarian) of over 100 µM, a TGI (SK-MEL-2 melanoma) of over 100 µM and a TGI (NCI-H522 lung) of over 100 µM. For the same compound, the TGI (HL-60(TB) leukemia) was 18.9 µM, the TGI (M14 melanoma) was 87.9 µM and the TGI (DMS 114 small cell lung) was over 100 µM. For the same compound, the TGI (SW-620 colon) was over 100 µM, the TGI (HT29 colon) was over 100 µM and the TGI (XF 498 CNS) was 84.8 µM. The TGI (SNB-19 CNS) was over 100 µM, the TGI (SK-MEL-28 melanoma) was over 100 µM and the TGI (NCI-H226 lung) was over 100 µM. The TGI (KM12 colon) was over 100 µM, the TGI (OVCAR-3 ovarian) was 80.9 µM and the TGI (NCI-H23 lung) was over 100 µM. The TGI (DLD-1 colon) was over 100 µM, the TGI (K-562 leukemia) was over 100 µM and the TGI (DMS 273 small cell lung) was over 100 µM. The TGI (HCC-2998 colon) was over 100 µM, the TGI (M19-MEL melanoma) was over 100 µM and the TGI (SF-539 CNS) was over 100 µM. It also gave a TGI (U251 CNS) of over 100 µM, a TGI (SR leukemia) of over 100 µM and a TGI (CAKI-1 renal) of over 100 µM. It also gave a TGI (SF-268 CNS) of over 100 µM, a TGI (A549 NSCLC) of over 100 µM and a TGI (786-0 renal) of over 100 µM. The TGI (OVCAR-4 ovarian) was over 100 µM, the TGI (SK-MEL-5 melanoma) was 42.8 µM and the TGI (UO-31 renal) was over 100 µM. The TGI (SNB-75 CNS) was 36.8 µM, the TGI (NCI-H460 lung) was over 100 µM and the TGI (UACC-62 melanoma) was 69.1 µM. For the same compound, the TGI (HOP-62 NSCLC) was 75 µM, the TGI (KM20L2 colon) was over 100 µM and the TGI (RXF-631 renal) was over 100 µM. The TGI (HOP-92 NSCLC) was over 100 µM, the TGI (RXF 393 renal) was over 100 µM and the TGI (CCRF-CEM leukemia) was over 100 µM. For the same compound, the TGI (SK-OV-3 ovarian) was 79.3 µM, the TGI (MOLT-4 leukemia) was over 100 µM and the TGI (SN12C renal) was over 100 µM. It also gave a TGI (UACC-257 melanoma) of over 100 µM, a TGI (HCT-116 colon) of over 100 µM and a TGI (OVCAR-5 ovarian) of over 100 µM. It also gave a TGI (TK-10 renal) of over 100 µM, a TGI (EKVX NSCLC) of over 100 µM and a TGI (SNB-78 CNS) of over 100 µM.

— PubChem BioAssay (NCI)
